Test results reported in PMC12132910, “A Novel Inhibitor against the Bromodomain Protein 1 of the Malaria Pathogen Plasmodium Falciparum” (Chemmedchem, 2025).
pEC50: −log10 of the molar value.

Tests used:
P. falciparum 3D7 [1] = assay: Malaria SYBR green I based fluorescence assay, dose response, 3D7; format: cell-based; conditions: Plasmodium falciparum, blood stage culture, 72 hours, mean (SD), 1 to 3 biological replicates
Procedure: (§1) The BRDi compounds had modest activity against all three strains (Table 2 ). […]
(§2) Shield1. Parasites were propagated in human red blood cells (blood group 0+) obtained from the Bavarian Red Cross service (BRK) and cultivated under standard conditions in RPMI 1640 (ThermoFisher) supplemented with 0.5% Albumax
(§3) (ThermoFisher), 20 µg/ml Gentamycin, 25 mM Hepes (pH 7.3), and 0.02% hypoxanthine in an atmosphere of 1% O2, 5% CO2, 94% N2.
(§4) Malaria SYBR green I based fluorescence assay
(§5) SYBR Green I based fluorescence assays to determine dose-response curves were performed essentially as described previously (Leidenberger et al., 2017). Briefly, parasite cultures were diluted to 1% ring stage parasitemia and cultivated at 2.5% haematocrit in 96 well plates in the presence of serial half-log dilutions of the compounds ranging from 100 µM to 10 nM or DMSO (dimethyl sulfoxide) corresponding to the highest concentration (0.1%). Chloroquine (C6628, Sigma-Aldrich) was used as control that was not expected to target PfBDP1 and was titrated from 5 µM to 1.6 nM. After 72 hours, cultures were lysed in lysis buffer (20 mM Tris-HCl, 5 mM EDTA, 0.008% saponin (Sigma-Aldrich), 0.08% Triton X (Sigma-Aldrich), 1:10,000 SYBR Green I dye (Invitrogen)) and fluorescence was measured in a Fluoroskan Ascent FL reader (excitation: 485 nm, emission: 530 nm). […]

P. falciparum NF54 [2] = assay: Malaria SYBR green I based fluorescence assay, dose response, NF54; format: cell-based; conditions: Plasmodium falciparum, blood stage culture, 72 hours, mean (SD), 1 to 3 biological replicates
Procedure: as §1, §2, §3, §4, §5

[3] = tested on: P. falciparum K1 (multidrug resistant); assay: Malaria SYBR green I based fluorescence assay, dose response, K1; format: cell-based; conditions: Plasmodium falciparum, K1, 72 h, read-out: EC50 K1
Procedure: as §1
resistant strain K1, MRA-159, contributed by Dennis E. Kyle. […]
as §2, §3, §4, §5

P. falciparum 3D7 [4] = assay: Growth of synchronous ring-stage cultures under treatment, 3D7; format: cell-based, Plasmodium falciparum; conditions: 3D7, synchronous ring stage, 48 h of treatment
P. falciparum NF54 [5] = assay: Growth of synchronous ring-stage cultures under treatment, NF54; format: cell-based, Plasmodium falciparum; conditions: 48 h of treatment
[6] = tested on: P. falciparum blood stage parasites; assay: Morphology and stage progression of treated synchronous parasites; format: cell-based, Plasmodium falciparum
[7] = tested on: 3D7::PfBDP1HADD parasites; assay: Dose-response assay in conditional PfBDP1 knockdown parasites; format: cell-based, Plasmodium falciparum; conditions: 10 nM Shld1 compared to 500 nM Shld1, 72 h
Source text: To validate whether the compounds indeed target the BRD of PfBDP1, we utilized a conditional KD system to modulate the expression levels of PfBDP1 in situ.^[ [15] ^] In the 3D7::PfBDP1HADD line, PfBDP1 is fused at its C‐terminus to a ligand‐regulatable FKBP destabilization domain (DD) that targets the fusion protein for proteasomal degradation but can be stabilized by the Shield1 ligand, and 3xHA epitope tags for detection ^11. […] In contrast, the EC50 of chloroquine was unchanged.
A) Western Blot analysis of 3D7::PfBDP1HADD parasites cultivated in the presence of Shield1 (Shld) in concentrations ranging from 0 to 500 nM over 72 h in duplicates. PfBDP1HADD was detected by anti‐HA antibodies. Histone 3 (H3) was probed as a loading control. […] Growth was determined relative to DMSO controls for each condition after 72 h of culture. N = 4 replicates. […] Binding of PfBDP1HA to target loci was calculated as enrichment relative to histone H3 ChIP performed in parallel. Shown are individual values and median of one representative experiment with technical duplicates. Paired t‐test, p = 0.0015. […]
resistant strain K1, MRA-159, contributed by Dennis E. Kyle. The NF54::PfBDP1HA parasite line was generated by transfection of NF54 parasites with the plasmid pSLI_PfBDP1_3xHA and selection linked integration of the construct in the presence of G418[21]. […]
as §4
SYBR Green I based fluorescence assays to determine dose-response curves were performed essentially as described previously (Leidenberger et al., 2017). […] After 72 hours, cultures were lysed in lysis buffer (20 mM Tris-HCl, 5 mM EDTA, 0.008% saponin (Sigma-Aldrich), 0.08% Triton X (Sigma-Aldrich), 1:10,000 SYBR Green I dye (Invitrogen)) and fluorescence was measured in a Fluoroskan Ascent FL reader (excitation: 485 nm, emission: 530 nm). […]

SMILES: Cc1cc(C(N)=O)ccc1-c1[nH]c(C)c2c1CCCCC2=O [RMM23, 3-Methyl-4-(3-methyl-4-oxo-2,4,5,6,7,8-hexahydrocyclohepta[c]pyrrol-1-yl)benzamide]
- pEC50 (P. falciparum 3D7 [1]): 4.74
- pEC50 (P. falciparum NF54 [2]): 4.86
- pEC50 [3]: 4.68
- parasite growth after treatment of ring-stage culture (P. falciparum 3D7 [4]): significantly reduced growth
- parasite growth after treatment of ring-stage culture (P. falciparum NF54 [5]): significantly reduced growth
- parasite development (morphology) after treatment from ring stage ([6]; treatment started at ring stage, normal trophozoites by 24 h): failed to undergo DNA replication and schizogony
- parasite development after treatment from trophozoite stage ([6]; treatment started at trophozoite stage, within 24 h, relative to DMSO control): block in egress and reinvasion
- change of sensitivity (dose-response, EC50) under partial PfBDP1 knockdown [7]: increased sensitivity
